Data: patent US8435762B2, “Chimeric ligand-gated ion channels and methods of use thereof” (Howard Hughes Medical Institute, priority 2008, dated 2013)
Entries after “also recorded” stand apart in the source; their conditions may differ. Counter-ions that a name gives are not always drawn.

Key:
[1] = molecular target: T1, α7-5HT3 wt chimeric receptor (Homo sapiens, UniProt P36544, M226I/T225I); assay: fluorescence membrane potential (MP) assay, HEK 293 cells; type: cell-based, human/mouse; settings: for activity against α7-5HT3 wt (unmodified) receptor: dose response curves, MP assay; for EC50: read-out: EC50-MP, α7 wt, IPD 5HT3, value (s.e.m.)
T1 construct: expressed in transfected cells; host or cells: HEK 293 cells

α7-5HT3 L141F = molecular target: T2, α7-5HT3 L141F (Homo sapiens, UniProt P36544, L141F/M226I/T225I); assay: as above; type: cell-based, human/mouse; settings: read-out: EC50-MP; α7 L141F, IPD 5HT3; value (s.e.m.)
T2 construct: expressed in transfected cells; host or cells: HEK 293 cells (ATCC CRL-1573)

α7-5HT3 W77F [2] = molecular target: T3, α7-5HT3 W77F (Homo sapiens, UniProt P36544, M226I/T225I/W77F); assay: whole cell voltage clamp recordings (Iss, Ipeak); type: cell-based, human/mouse
T3 construct: expressed in transfected cells; host or cells: HEK 293 cells (ATCC CRL-1573)

α7-5HT3 W77F [3] = molecular target: T3, α7-5HT3 W77F; assay: fluorescence membrane potential (MP) assay, HEK 293 cells; type: cell-based, human/mouse
α7-5HT3 Q79G Q139M = molecular target: T4, α7-5HT3 Q79G Q139M (Homo sapiens, UniProt P36544, M226I/Q139M/Q79G/T225I); assay: as above; type: cell-based, human/mouse
T4 construct: expressed in transfected cells

α7-GlyR L141F = molecular target: T5, α7-GlyR L141F (Homo sapiens, UniProt P36544, L141F); assay: whole cell voltage clamp recordings (Iss, Ipeak); type: cell-based; settings: IPD GlyR
T5 construct: expressed in transfected cells; host or cells: HEK 293 cells (A15); cortical neurons transduced with AAV, synapsin promoter (A22)

α7-5HT3 Q79G [4] = molecular target: T6, α7-5HT3 Q79G (Homo sapiens, UniProt P36544, M226I/Q79G/T225I); assay: fluorescence membrane potential (MP) assay, HEK 293 cells; type: cell-based, human/mouse; settings: read-out: EC50-MP; α7 Q79G, IPD 5HT3; value (s.e.m.)
T6 construct: expressed in transfected cells; host or cells: HEK 293 cells (ATCC CRL-1573)

α7-5HT3 Q79G [5] = molecular target: T6, α7-5HT3 Q79G; assay: whole cell voltage clamp recordings (Iss, Ipeak); type: cell-based, human/mouse
[6] = molecular target: T1, α7-5HT3 wt chimeric receptor; assay: whole cell voltage clamp recordings (Iss, Ipeak); type: cell-based, human/mouse
α7-5HT3 Y115F = molecular target: T7, α7-5HT3 Y115F (Homo sapiens, UniProt P36544, M226I/T225I/Y115F); assay: efficacy on ACh-insensitive mutant; type: cell-based, human/mouse
T7 construct: expressed in transfected cells; host or cells: not restated

α7-5HT3 Y210F = molecular target: T8, α7-5HT3 Y210F (Homo sapiens, UniProt P36544, M226I/T225I/Y210F); assay: efficacy on ACh-insensitive mutant; type: cell-based, human/mouse
T8 construct: expressed in transfected cells; host or cells: not restated

[7] = read-out: EC50-Ipeak, peak current, IPD 5HT3
[8] = read-out: EC50-Iss, steady state current, IPD 5HT3
[9] = EC50-Ipeak, peak current, *complex: multiphasic dose response

T5 sequence (P36544 with tags, fused parts or gaps L141F): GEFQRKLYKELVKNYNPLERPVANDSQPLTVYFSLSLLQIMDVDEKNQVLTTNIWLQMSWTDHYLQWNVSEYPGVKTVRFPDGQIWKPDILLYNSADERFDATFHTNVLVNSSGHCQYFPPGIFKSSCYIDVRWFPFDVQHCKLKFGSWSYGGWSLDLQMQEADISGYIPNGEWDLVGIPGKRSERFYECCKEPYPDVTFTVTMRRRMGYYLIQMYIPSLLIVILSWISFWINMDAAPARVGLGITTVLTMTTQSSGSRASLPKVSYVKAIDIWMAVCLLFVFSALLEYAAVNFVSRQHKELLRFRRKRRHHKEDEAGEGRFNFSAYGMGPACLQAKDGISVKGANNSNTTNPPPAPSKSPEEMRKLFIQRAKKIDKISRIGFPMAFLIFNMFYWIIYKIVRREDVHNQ
T3 sequence (P36544 with tags, fused parts or gaps W77F/T225I/M226I): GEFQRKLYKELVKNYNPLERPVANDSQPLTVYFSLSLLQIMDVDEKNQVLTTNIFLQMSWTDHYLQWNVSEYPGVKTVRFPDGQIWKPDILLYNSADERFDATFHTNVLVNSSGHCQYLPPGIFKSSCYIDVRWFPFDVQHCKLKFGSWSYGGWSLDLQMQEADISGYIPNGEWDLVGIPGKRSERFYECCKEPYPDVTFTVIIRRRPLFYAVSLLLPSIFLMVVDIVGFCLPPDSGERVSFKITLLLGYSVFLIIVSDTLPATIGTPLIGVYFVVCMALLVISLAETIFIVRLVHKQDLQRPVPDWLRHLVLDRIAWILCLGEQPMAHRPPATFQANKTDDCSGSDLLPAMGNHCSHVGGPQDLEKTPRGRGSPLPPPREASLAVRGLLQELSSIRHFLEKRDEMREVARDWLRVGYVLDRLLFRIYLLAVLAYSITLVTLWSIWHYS
T6 sequence (P36544 with tags, fused parts or gaps Q79G/T225I/M226I): as the sequence (P36544 with tags, fused parts or gaps W77F/T225I/M226I) above, with F55W, Q57G counted along it
T2 sequence (P36544 with tags, fused parts or gaps L141F/T225I/M226I): as the sequence (P36544 with tags, fused parts or gaps W77F/T225I/M226I) above, with F55W, L119F counted along it
T1 sequence (P36544 with tags, fused parts or gaps T225I/M226I): as the sequence (P36544 with tags, fused parts or gaps W77F/T225I/M226I) above, with F55W counted along it
T4 sequence (P36544 with tags, fused parts or gaps Q79G/Q139M/T225I/M226I): as the sequence (P36544 with tags, fused parts or gaps W77F/T225I/M226I) above, with F55W, Q57G, Q117M counted along it
T7 sequence (P36544 with tags, fused parts or gaps Y115F/T225I/M226I): as the sequence (P36544 with tags, fused parts or gaps W77F/T225I/M226I) above, with F55W, Y93F counted along it
T8 sequence (P36544 with tags, fused parts or gaps Y210F/T225I/M226I): as the sequence (P36544 with tags, fused parts or gaps W77F/T225I/M226I) above, with F55W, Y188F counted along it

For `COc1ccccc1C(=O)N[C@@H]1CN2CCC1CC2` [Compound 19S, (S)-2-methoxy-N-(quinuclidin-3-yl)benzamide], the “activity against α7-5HT3 wt (unmodified) receptor” value (shortened to “activity against α7-5HT3 wt”) [1] was “did not induce activate” and the EC50 (α7-5HT3 L141F) was 1400 nM.

`O=C(N[C@@H]1CN2CCC1CC2)c1ccc(-c2ccccc2)cc1` [Compound 28S, (S)—N-(quinuclidin-3-yl)biphenyl-4-carboxamide TFA] was tested, and the “activity against α7-5HT3 wt” value [1] was “did not induce activate”, the EC50 (α7-5HT3 W77F [2]; [7]) was 11300 nM and the EC50 (α7-5HT3 W77F [2]; [8]) was 2400 nM.

For `O=C(N[C@@H]1CN2CCC1CC2)c1ccc(-c2cccs2)cc1` [Compound 34S, (S)—N-(quinuclidin-3-yl)-4-(thiophen-2-yl)benzamide], the “activity against α7-5HT3 wt” value [1] was “did not induce activate” and the EC50 (α7-5HT3 W77F [3]; α7 W77F, IPD 5HT3; value (s.e.m.); read-out: EC50-MP) was 1400 nM.

For `CS(=O)(=O)c1ccc(C(=O)N[C@H]2CN3CCC2CC3)cc1` [Compound 38R, (R)-4-(methylsulfonyl)-N-(quinuclidin-3-yl)benzamide TFA], the “activity against α7-5HT3 wt” value ([1]; TFA) was “no activity; also recorded: did not induce activate”, the “fold improvement in potency (EC50), α7-5HT3 Q79G Q139M relative to α7-5HT3 Q79G” value (α7-5HT3 Q79G Q139M; EC50MP) was 8 fold and the EC50 (α7-5HT3 Q79G Q139M; read-out: EC50-MP, α7 Q79G Q139M, IPD 5HT3, value (s.e.m.)) was 230 ± 70 nM.

With `COc1ccc(C(=O)N[C@@H]2CN3CCC2CC3)c(OC)c1` [Compound 88S, (S)-2,4-dimethoxy-N-(quinuclidin-3-yl)benzamide] the “activity against α7-5HT3 wt” value [1] was “no activity” and the EC50 (α7-5HT3 L141F) was 100 ± 100 nM.

For `COc1ccc(Cl)cc1C(=O)N[C@@H]1CN2CCC1CC2` [Compound 118S, (S)-5-chloro-2-methoxy-N-(quinuclidin-3-yl)benzamide TFA], the EC50 (α7-GlyR L141F; [9]) was 3200 nM and the EC50 (α7-GlyR L141F; EC50-Iss, steady state current) was 3000 nM.

Molecule `COc1ccc(F)cc1C(=O)N[C@@H]1CN2CCC1CC2` [Compound 119S, (S)-5-fluoro-2-methoxy-N-(quinuclidin-3-yl)benzamide TFA] has an EC50 (α7-GlyR L141F; [9]) of 3800 nM and an EC50 (α7-GlyR L141F; EC50-Iss, steady state current) of 2500 nM.

For `O=C(N[C@@H]1CN2CCC1CC2)c1ccc(-c2ccc(F)cc2)cc1` [Compound 132S, (S)-4′-fluoro-N-(quinuclidin-3-yl)biphenyl-4-carboxamide TFA], the “selective activation of α7-5HT3 W77F over receptors with Q79G and L141F mutations” value (α7-5HT3 W77F [3]; FIG. 5 dose response curves) was “selectively activated” and the EC50 (α7-5HT3 W77F [3]; read-out: EC50-MP; α7 W77F, IPD 5HT3; value (s.e.m.)) was 4300 ± 500 nM.

`CCCc1ccc(C(=O)N[C@@H]2CN3CCC2CC3)cc1` [Compound 165S, (S)-4-propyl-N-(quinuclidin-3-yl)benzamide TFA] showed an EC50 (α7-5HT3 Q79G [4]) of 1900 nM, an EC50 (α7-5HT3 Q79G [5]; [7]) of 5900 nM and an EC50 (α7-5HT3 Q79G [5]; [8]) of 900 nM.

`c1ccc2c(c1)CC1C(=NN2)C2CCN1CC2` (centres unmarked) [Compound 212] was tested, and the EC50 [1] was over 100000 nM, the EC50 (α7-5HT3 Q79G [4]) was over 100000 nM and the EC50 (α7-5HT3 L141F) was 750 nM.

`O=C(N[C@H]1CN2CCC1CC2)c1ccc(Cl)cc1` [PNU-282987] gave an EC50 [1] of 60 nM, an EC50 ([6]; peak current, IPD 5HT3, read-out: EC50-Ipeak) of 800 nM and an EC50 ([6]; steady state current, IPD 5HT3, read-out: EC50-Iss) of 90 nM. For the same molecule, the “efficacy with α7-5HT3 carrying Y115F” value (α7-5HT3 Y115F) was “greatly reduced or eliminated” and the “efficacy with α7-5HT3 carrying Y210F” value (α7-5HT3 Y210F) was “greatly reduced or eliminated”.
